# Measured values taken from patent US20180206495A1, “SUBSTITUTED ARYL AND HETEROARYL CARBOXYLIC ACID HYDRAZIDES OR SALTS THEREOF AND USE THEREOF TO INCREASE STRESS TOLERANCE IN PLANTS” (BAYER CROPSCIENCE AKTIENGESELLSCHAFT, priority 2015, published 2018).
# What was measured:
# Brassica napus [1] = test: In vivo analyses Part A: drought stress, spray application, visual damage scoring, Brassica napus
# Description: (§1) Seeds of monocotyledonous and dicotyledonous crop plants were sown in sandy loam in wood-fiber or plastic pots, covered with soil or sand and cultivated in a greenhouse under good growth conditions. The trial plants were treated at the early leaf stage (BBCH10-BBCH13). To assure uniform water supply before commencement of stress, the potted plants were supplied with water by dam irrigation prior to substance application. The inventive compounds formulated in the form of wettable powders (WP) were sprayed onto the green parts of the plants as an aqueous suspension at an equivalent water application rate of 600 l/ha with addition of 0.2% wetting agent (e.g. agrotin). Substance application was followed immediately by stress treatment of the plants. For this purpose, the wood-fiber pots were transferred in plastic inserts in order to prevent them from subsequently drying out too quickly. Drought stress was induced by gradual drying out under the following conditions: “Day”: 14 hours with illumination at ˜26-30° C. “Night”: 10 hours without illumination at ˜18-20° C. The duration of the respective stress phases was guided mainly by the condition of the stressed control plants. It was ended (by re-irrigating and transfer to a greenhouse with good growth conditions) as soon as irreversible damage was observed on the stressed control plants. The end of the stress phase was followed by an about 4-7-day recovery phase, during which the plants were once again kept under good growth conditions in a greenhouse. The duration of the recovery phase was guided mainly by when the trial plants had attained a state which enabled visual scoring of potential effects, and is therefore variable. Once this juncture was reached, the intensities of damage were scored visually in comparison to untreated, unstressed controls of the same age. The damage intensity was at first assessed in per cent. These values were then used to calculate the efficacy of the test compounds by the following formula: [formula] EF: Efficacy DIs: Damage intensity of the stressed control plants DIt: Damage intensity of the stressed plants treated with test compound The values reported in tables A-1 to A-3 below are mean values from at least one trial with at least two repeats, showing the effects of selected compounds of the general formula (I) under drought stress on various crop plants.
# Zea mays = test: In vivo analyses Part A: drought stress, spray application, visual damage scoring, Zea mays
# Description: as §1
# Brassica napus [2] = test: In vivo analyses Part B: drought stress, spray application, appearance vs stressed control in categories, Brassica napus; parameters: key: 0: no positive effect; +: slight positive effect; ++: clear positive effect; +++: strong positive effect
# Description: (§2) Seeds of monocotyledonous and dicotyledonous crop plants were sown in sandy loam in plastic pots, covered with soil or sand and cultivated in a greenhouse under good growth conditions. The test plants are treated at the early leaf stage (BBCH10-BBCH13). To assure uniform water supply before commencement of stress, the potted plants were supplied with water by dam irrigation prior to substance application. The inventive compounds were first formulated as wettable powders (WP) or dissolved in a solvent mixture. The further dilution was effected with water supplemented with 0.2% wetting agent (e.g. agrotin). The finished spray liquor was sprayed onto the green parts of the plant at an equivalent water application rate of 600 l/ha. Substance application was followed immediately by stress treatment of the plants. Drought stress was induced by gradual drying out under the following conditions: “Day”: 14 hours with illumination at ˜26-30° C. “Night”: 10 hours without illumination at ˜18-20° C. The duration of the respective stress phases was guided mainly by the condition of the stressed control plants. It was ended (by re-irrigating and transfer to a greenhouse with good growth conditions) as soon as irreversible damage was observed on the stressed control plants. The end of the stress phase was followed by an about 4-7-day recovery phase, during which the plants were once again kept under good growth conditions in a greenhouse. The duration of the recovery phase was guided mainly by when the trial plants had attained a state which enabled visual scoring of potential effects, and was therefore variable. Once this juncture had been reached, the appearance of the plants treated with test substances was recorded in comparison to the stressed control plants by the following categories: • 0 no positive effect • + slight positive effect • ++ clear positive effect • +++ strong positive effect In order to rule out any influence on the effects observed by any fungicidal or insecticidal action of the test compounds, it was additionally ensured that the tests proceeded without fungal infection or insect infestation. The values reported in tables B-1 and B-2 below are mean values of the results from at least three repeats. Effects of selected compounds of the general formula (I) under drought stress according to the following tables B-1 and B-2: […]
# Triticum aestivum = test: In vivo analyses Part B: drought stress, spray application, appearance vs stressed control in categories, Triticum aestivum; parameters: key: 0: no positive effect; +: slight positive effect; ++: clear positive effect; +++: strong positive effect
# Description: as §2
compound,measurement,setting,value
CN(C)N(Cc1ncc(Cl)cc1Cl)C(=O)c1cccc(Cl)c1 [A28-35],EF [%] (BRSNS),Brassica napus [1]; dosage 250 g/ha,>5%
same,EF [%] (ZEAMX),Zea mays; dosage 250 g/ha,>5%
CN(C)N(Cc1ccccc1Cl)C(=O)c1ccccc1[N+](=O)[O-] [A32-1],EF [%] (ZEAMX),Zea mays; dosage 250 g/ha,>5%
CN(C)N(Cc1ccc2ccccc2n1)C(=O)c1cccc([N+](=O)[O-])c1 [A33-122],EF [%] (BRSNS),Brassica napus [1]; dosage 250 g/ha,>5%
same,EF [%] (ZEAMX),Zea mays; dosage 25 g/ha,>5%
CN(C)N(Cc1ccc2ccccc2n1)C(=O)c1cccc(C#N)c1 [A34-122],EF [%] (ZEAMX),Zea mays; dosage 25 g/ha,>5%
CN(C)N(Cc1cccnc1C#N)C(=O)c1ccccc1I [A36-679],Effect (BRSNS),Brassica napus [2]; dosage 250 g/ha,+
same,Effect (TRZAS),Triticum aestivum; dosage 250 g/ha,+
CN(C)N(Cc1ccccc1Cl)C(=O)c1ccc(C#N)cc1C(F)(F)F [A48-1],Effect (BRSNS),Brassica napus [2]; dosage 25 g/ha,+++
same,Effect (TRZAS),Triticum aestivum; dosage 250 g/ha,+
Cc1ccc(C(=O)N(Cc2nccc(Cl)c2Cl)N(C)C)c(C(F)(F)F)c1 [A50-40],Effect (BRSNS),Brassica napus [2]; dosage 25 g/ha,++
same,Effect (TRZAS),Triticum aestivum; dosage 250 g/ha,+
CN(C)N(Cc1ncc(C(F)(F)F)cc1Cl)C(=O)c1ccc(Cl)cc1C(F)(F)F [A51-36],Effect (BRSNS),Brassica napus [2]; dosage 250 g/ha,+
same,Effect (TRZAS),Triticum aestivum; dosage 25 g/ha,+
CN(C)N(Cc1ccccc1C#N)C(=O)c1ccc(Cl)cc1C(F)(F)F [A51-61],Effect (BRSNS),Brassica napus [2]; dosage 25 g/ha,++
same,Effect (TRZAS),Triticum aestivum; dosage 25 g/ha,+
CN(C)N(Cc1ncc(C(F)(F)F)cc1Cl)C(=O)c1ccc(F)cc1F [A52-36],Effect (BRSNS),Brassica napus [2]; dosage 25 g/ha,+++
same,Effect (TRZAS),Triticum aestivum; dosage 250 g/ha,+
CN(C)N(Cc1ccccc1Cl)C(=O)c1cnccc1C(F)(F)F [B1-1],EF [%] (ZEAMX),Zea mays; dosage 25 g/ha,>5%
CN(C)N(Cc1c(Cl)cccc1Cl)C(=O)c1cnccc1C(F)(F)F [B1-7],Effect (BRSNS),Brassica napus [2]; dosage 250 g/ha,+++
same,Effect (TRZAS),Triticum aestivum; dosage 250 g/ha,+
CN(C)N(Cc1ccc(F)cc1F)C(=O)c1cnccc1C(F)(F)F [B1-15],Effect (BRSNS),Brassica napus [2]; dosage 250 g/ha,+++
same,Effect (TRZAS),Triticum aestivum; dosage 250 g/ha,+
CN(C)N(Cc1c(F)cccc1F)C(=O)c1cnccc1C(F)(F)F [B1-17],Effect (BRSNS),Brassica napus [2]; dosage 250 g/ha,++
same,Effect (TRZAS),Triticum aestivum; dosage 250 g/ha,+
CN(C)N(Cc1cccc(C#N)c1)C(=O)c1cnccc1C(F)(F)F [B1-62],Effect (BRSNS),Brassica napus [2]; dosage 250 g/ha,++
same,Effect (TRZAS),Triticum aestivum; dosage 250 g/ha,+
CN(C)N(Cc1ccc2ccccc2n1)C(=O)c1cnccc1C(F)(F)F [B1-122],EF [%] (BRSNS),Brassica napus [1]; dosage 25 g/ha,>5%
same,EF [%] (ZEAMX),Zea mays; dosage 250 g/ha,>5%
CN(C)N(Cc1ccccn1)C(=O)c1cccnc1C(F)(F)C(F)(F)F [B3-21],EF [%] (BRSNS),Brassica napus [1]; dosage 250 g/ha,>5%
same,EF [%] (ZEAMX),Zea mays; dosage 25 g/ha,>5%
CN(C)N(Cc1ccccc1C#N)C(=O)c1ccc(C(F)(F)F)nc1 [B5-61],Effect (BRSNS),Brassica napus [2]; dosage 25 g/ha,+
same,Effect (TRZAS),Triticum aestivum; dosage 25 g/ha,+
CN(C)N(Cc1ccc(Cl)nc1)C(=O)c1ccc(C(F)F)nc1 [B6-94],Effect (BRSNS),Brassica napus [2]; dosage 250 g/ha,+
same,Effect (TRZAS),Triticum aestivum; dosage 250 g/ha,+
CN(C)N(Cc1ccc(Cl)cc1)C(=O)c1ccncc1 [C1-3],EF [%] (BRSNS),Brassica napus [1]; dosage 250 g/ha,>5%
same,EF [%] (ZEAMX),Zea mays; dosage 25 g/ha,>5%
CN(C)N(Cc1ccccc1C#N)C(=O)c1ccncc1 [C1-61],EF [%] (BRSNS),Brassica napus [1]; dosage 250 g/ha,>5%
CN(C)N(Cc1cccc(C#N)c1)C(=O)c1ccncc1 [C1-62],EF [%] (BRSNS),Brassica napus [1]; dosage 2.5 g/ha,>5%
CN(C)N(Cc1ncc(C(F)(F)F)cc1Cl)C(=O)c1ccncc1C(F)(F)F [C2-36],EF [%] (BRSNS),Brassica napus [1]; dosage 25 g/ha,>5%
CN(C)N(Cc1cc(C(F)(F)F)ccc1Cl)C(=O)c1ccccn1 [D1-86],EF [%] (BRSNS),Brassica napus [1]; dosage 25 g/ha,>5%
same,EF [%] (ZEAMX),Zea mays; dosage 250 g/ha,>5%
CN(C)N(Cc1ccccc1Cl)C(=O)c1cncnc1C(F)(F)Cl [E3-1],Effect (BRSNS),Brassica napus [2]; dosage 25 g/ha,+
same,Effect (TRZAS),Triticum aestivum; dosage 25 g/ha,+
CN(C)N(Cc1ccccc1C#N)C(=O)c1ccnnc1 [G1-61],Effect (BRSNS),Brassica napus [2]; dosage 100 g/ha,+
same,Effect (TRZAS),Triticum aestivum; dosage 100 g/ha,+
